What was measured:
[1] = molecular target: Mitogen-activated protein kinase kinase kinase 9 (Homo sapiens) (UniProt P80192); assay: Binding affinity to wild-type human partial length MLK1 (V88 to W426 residues) expressed in bacterial expression system assessed as residual binding level at 10 uM by Kinomescan method relative to control
[2] = system: Mast/stem cell growth factor receptor Kit (Homo sapiens), P10721 [D816H]; assay: Binding affinity to human partial length KIT D816H mutant (I571 to D952 residues) expressed in mammalian expression system assessed as residual binding level at 10 uM by Kinomescan method relative to control
[3] = molecular target: Mitogen-activated protein kinase kinase kinase 11 (Homo sapiens) (UniProt Q16584); assay: Binding affinity to wild-type human partial length MLK3 (I77 to W399 residues) expressed in bacterial expression system assessed as residual binding level at 10 uM by Kinomescan method relative to control
[4] = molecular target: RAF proto-oncogene serine/threonine-protein kinase (Homo sapiens) (UniProt P04049); assay: Binding affinity to wild-type human partial length RAF1 (I330 to T640 residues) expressed in bacterial expression system assessed as residual binding level at 10 uM by Kinomescan method relative to control
[5] = molecular target: Phosphatidylinositol 4,5-bisphosphate 3-kinase catalytic subunit delta isoform (Homo sapiens) (UniProt O00329); assay: Binding affinity to wild-type human partial length PIK3CD (R108 to Q1044 residues) expressed in mammalian expression system assessed as residual binding level at 10 uM by Kinomescan method relative to control
[6] = molecular target: Uncharacterized serine/threonine-protein kinase SBK3 (Homo sapiens) (UniProt P0C264); assay: Binding affinity to wild-type human partial length SgK110 (L22 to R329 residues) expressed in bacterial expression system assessed as residual binding level at 10 uM by Kinomescan method relative to control
[7] = molecular target: Mitogen-activated protein kinase kinase kinase 2 (Homo sapiens) (UniProt Q9Y2U5); assay: Binding affinity to wild-type human partial length MAP3K2 (S315 to H619 residues) expressed in mammalian expression system assessed as residual binding level at 10 uM by Kinomescan method relative to control
[8] = molecular target: SRSF protein kinase 1 (Homo sapiens) (UniProt Q96SB4); assay: Binding affinity to wild-type human full length SRPK1 (M1 to S655 residues) expressed in bacterial expression system assessed as residual binding level at 10 uM by Kinomescan method relative to control
[9] = system: Hepatocyte growth factor receptor (Homo sapiens), P08581 [M1250T]; assay: Binding affinity to human partial length MET M1250T mutant (D1010 to S1367 residues) expressed in bacterial expression system assessed as residual binding level at 10 uM by Kinomescan method relative to control
[10] = molecular target: Cyclin-dependent kinase-like 2 (Homo sapiens) (UniProt Q92772); assay: Binding affinity to wild-type human partial length CDKL2 (M1 to D327 residues) expressed in bacterial expression system assessed as residual binding level at 10 uM by Kinomescan method relative to control
[11] = molecular target: Epithelial discoidin domain-containing receptor 1 (Homo sapiens) (UniProt Q08345); assay: Binding affinity to wild-type human partial length DDR1 (R565 to V876 residues) expressed in bacterial expression system assessed as residual binding level at 10 uM by Kinomescan method relative to control
[12] = molecular target: Mitogen-activated protein kinase kinase kinase 7 (Homo sapiens) (UniProt O43318); assay: Binding affinity to wild-type human partial length TAK1 (M1 to Q303 residues) expressed in mammalian expression system assessed as residual binding level at 10 uM by Kinomescan method relative to control
[13] = molecular target: Mitogen-activated protein kinase kinase kinase 15 (Homo sapiens) (UniProt Q6ZN16); assay: Binding affinity to wild-type human partial length MAP3K15 (T625 to L932 residues) expressed in mammalian expression system assessed as residual binding level at 10 uM by Kinomescan method relative to control
[14] = system: Serine/threonine-protein kinase B-raf (Homo sapiens), P15056 [V600E]; assay: Binding affinity to human partial length BRAF V600E mutant (S429 to E741 residues) expressed in mammalian expression system assessed as residual binding level at 10 uM by Kinomescan method relative to control
[15] = molecular target: Ribosomal protein S6 kinase alpha-3 (Homo sapiens) (UniProt P51812); assay: Binding affinity to wild-type human partial length N- terminal RSK2 kinase domain 1 (M1 to D394 residues) expressed in mammalian expression system assessed as residual binding level at 10 uM by Kinomescan method relative to control
[16] = molecular target: Serine/threonine-protein kinase D1 (Homo sapiens) (UniProt Q15139); assay: Binding affinity to wild-type human partial length PRKD1 (G551 to E870 residues) expressed in bacterial expression system assessed as residual binding level at 10 uM by Kinomescan method relative to control
[17] = molecular target: Serine/threonine-protein kinase NLK (Homo sapiens) (UniProt Q9UBE8); assay: Binding affinity to wild-type human full length NLK (M13 to E527 residues) expressed in bacterial expression system assessed as residual binding level at 10 uM by Kinomescan method relative to control
[18] = molecular target: Cyclin-dependent kinase 15 (Homo sapiens) (UniProt Q96Q40); assay: Binding affinity to wild-type human full length PFTAIRE2 (M1 to W384 residues) expressed in bacterial expression system assessed as residual binding level at 10 uM by Kinomescan method relative to control
[19] = molecular target: Death-associated protein kinase 2 (Homo sapiens) (UniProt Q9UIK4); assay: Binding affinity to wild-type human full length DAPK2 (M1 to S370 residues) expressed in bacterial expression system assessed as residual binding level at 10 uM by Kinomescan method relative to control
[20] = molecular target: Mitogen-activated protein kinase kinase kinase 5 (Homo sapiens) (UniProt Q99683); assay: Binding affinity to wild-type human partial length ASK1 (E648 to S964 residues) expressed in bacterial expression system assessed as residual binding level at 10 uM by Kinomescan method relative to control
[21] = molecular target: Serine/threonine-protein kinase TAO1 (Homo sapiens) (UniProt Q7L7X3); assay: Binding affinity to wild-type human partial length TAOK1 (M1 to A320 residues) expressed in mammalian expression system assessed as residual binding level at 10 uM by Kinomescan method relative to control
[22] = molecular target: Calcium/calmodulin-dependent protein kinase type 1G (Homo sapiens) (UniProt Q96NX5); assay: Binding affinity to wild-type human partial length CAMK1G (M1 to A342 residues) expressed in bacterial expression system assessed as residual binding level at 10 uM by Kinomescan method relative to control
[23] = molecular target: Bone morphogenetic protein receptor type-2 (Homo sapiens) (UniProt Q13873); assay: Binding affinity to wild-type human partial length BMPR2 (R179 to Q526 residues) expressed in mammalian expression system assessed as residual binding level at 10 uM by Kinomescan method relative to control
[24] = molecular target: Angiopoietin-1 receptor (Homo sapiens) (UniProt Q02763); assay: Binding affinity to wild-type human partial length TIE2 (N804 to T1112 residues) expressed in bacterial expression system assessed as residual binding level at 10 uM by Kinomescan method relative to control

Sequence of Cyclin-dependent kinase 15 (Homo sapiens) (Q96Q40 whole entry, the tested form may be a part): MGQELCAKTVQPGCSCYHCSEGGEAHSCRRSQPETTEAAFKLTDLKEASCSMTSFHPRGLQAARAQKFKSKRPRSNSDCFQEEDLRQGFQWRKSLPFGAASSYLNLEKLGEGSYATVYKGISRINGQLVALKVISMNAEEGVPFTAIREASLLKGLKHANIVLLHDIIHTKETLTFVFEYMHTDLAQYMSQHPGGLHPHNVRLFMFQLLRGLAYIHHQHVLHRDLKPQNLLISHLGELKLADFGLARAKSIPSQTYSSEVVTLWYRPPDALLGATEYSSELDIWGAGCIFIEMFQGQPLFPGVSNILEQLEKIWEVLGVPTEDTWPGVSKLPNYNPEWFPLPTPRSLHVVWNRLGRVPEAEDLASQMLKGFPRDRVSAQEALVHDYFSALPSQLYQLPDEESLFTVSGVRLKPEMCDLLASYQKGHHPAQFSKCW
Sequence of Mitogen-activated protein kinase kinase kinase 5 (Homo sapiens) (Q99683 whole entry, the tested form may be a part): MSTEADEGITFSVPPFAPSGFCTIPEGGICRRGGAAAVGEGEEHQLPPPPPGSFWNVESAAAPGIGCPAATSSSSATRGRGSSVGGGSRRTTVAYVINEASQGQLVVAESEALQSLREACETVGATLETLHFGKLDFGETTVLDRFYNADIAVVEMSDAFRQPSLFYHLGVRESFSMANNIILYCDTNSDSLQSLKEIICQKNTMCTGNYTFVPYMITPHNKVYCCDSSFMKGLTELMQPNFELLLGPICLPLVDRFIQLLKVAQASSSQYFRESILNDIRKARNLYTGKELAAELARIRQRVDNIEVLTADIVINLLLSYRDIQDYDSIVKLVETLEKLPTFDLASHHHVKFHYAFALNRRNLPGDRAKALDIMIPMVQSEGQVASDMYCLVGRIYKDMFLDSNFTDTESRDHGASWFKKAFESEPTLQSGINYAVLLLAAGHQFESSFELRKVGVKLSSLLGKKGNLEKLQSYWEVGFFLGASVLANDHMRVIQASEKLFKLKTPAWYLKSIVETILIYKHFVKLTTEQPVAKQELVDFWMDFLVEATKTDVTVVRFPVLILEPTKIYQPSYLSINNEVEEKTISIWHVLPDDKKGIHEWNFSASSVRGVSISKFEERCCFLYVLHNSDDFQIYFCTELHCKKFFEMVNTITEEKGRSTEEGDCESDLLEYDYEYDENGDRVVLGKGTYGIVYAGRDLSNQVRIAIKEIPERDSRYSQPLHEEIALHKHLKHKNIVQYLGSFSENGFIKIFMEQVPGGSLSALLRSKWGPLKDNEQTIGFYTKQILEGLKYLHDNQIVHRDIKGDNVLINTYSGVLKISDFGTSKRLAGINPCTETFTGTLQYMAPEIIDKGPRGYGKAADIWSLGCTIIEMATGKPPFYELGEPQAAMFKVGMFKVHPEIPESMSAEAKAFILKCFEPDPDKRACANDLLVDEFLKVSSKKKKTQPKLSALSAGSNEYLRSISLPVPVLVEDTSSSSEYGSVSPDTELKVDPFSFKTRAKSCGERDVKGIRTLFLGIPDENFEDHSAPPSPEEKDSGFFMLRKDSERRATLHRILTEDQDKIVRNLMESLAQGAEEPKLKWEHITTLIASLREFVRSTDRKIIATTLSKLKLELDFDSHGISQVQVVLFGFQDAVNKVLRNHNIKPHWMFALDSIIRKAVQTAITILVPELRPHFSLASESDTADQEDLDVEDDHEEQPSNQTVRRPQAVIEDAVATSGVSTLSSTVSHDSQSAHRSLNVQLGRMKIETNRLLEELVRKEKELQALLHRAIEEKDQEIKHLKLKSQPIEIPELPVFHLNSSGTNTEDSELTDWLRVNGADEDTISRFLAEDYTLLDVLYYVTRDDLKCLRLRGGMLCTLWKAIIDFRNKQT
Sequence of Mitogen-activated protein kinase kinase kinase 11 (Homo sapiens) (Q16584 whole entry, looked up, the tested form may be a part): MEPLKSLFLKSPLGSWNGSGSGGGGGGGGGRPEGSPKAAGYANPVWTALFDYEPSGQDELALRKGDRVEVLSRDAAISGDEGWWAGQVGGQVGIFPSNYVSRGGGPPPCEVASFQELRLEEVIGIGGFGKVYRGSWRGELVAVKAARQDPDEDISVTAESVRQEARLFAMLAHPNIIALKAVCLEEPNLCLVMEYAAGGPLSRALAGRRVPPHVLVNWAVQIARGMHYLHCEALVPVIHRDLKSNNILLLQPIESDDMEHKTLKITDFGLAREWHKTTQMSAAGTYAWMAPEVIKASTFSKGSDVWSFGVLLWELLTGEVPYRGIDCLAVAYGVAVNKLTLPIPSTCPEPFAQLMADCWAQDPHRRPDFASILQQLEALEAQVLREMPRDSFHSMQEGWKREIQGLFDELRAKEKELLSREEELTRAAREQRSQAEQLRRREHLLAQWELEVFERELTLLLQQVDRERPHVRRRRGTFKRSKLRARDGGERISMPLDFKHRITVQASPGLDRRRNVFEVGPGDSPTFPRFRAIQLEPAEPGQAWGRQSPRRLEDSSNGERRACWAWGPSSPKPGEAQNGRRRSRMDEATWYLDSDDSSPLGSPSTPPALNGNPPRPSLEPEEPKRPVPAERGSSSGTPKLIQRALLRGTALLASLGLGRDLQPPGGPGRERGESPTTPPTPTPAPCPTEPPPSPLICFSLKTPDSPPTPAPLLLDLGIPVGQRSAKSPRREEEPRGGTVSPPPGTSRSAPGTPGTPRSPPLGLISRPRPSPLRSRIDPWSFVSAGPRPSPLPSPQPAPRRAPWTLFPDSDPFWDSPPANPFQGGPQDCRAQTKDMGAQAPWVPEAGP
Sequence of RAF proto-oncogene serine/threonine-protein kinase (Homo sapiens) (P04049 whole entry, the tested form may be a part, canonical isoform): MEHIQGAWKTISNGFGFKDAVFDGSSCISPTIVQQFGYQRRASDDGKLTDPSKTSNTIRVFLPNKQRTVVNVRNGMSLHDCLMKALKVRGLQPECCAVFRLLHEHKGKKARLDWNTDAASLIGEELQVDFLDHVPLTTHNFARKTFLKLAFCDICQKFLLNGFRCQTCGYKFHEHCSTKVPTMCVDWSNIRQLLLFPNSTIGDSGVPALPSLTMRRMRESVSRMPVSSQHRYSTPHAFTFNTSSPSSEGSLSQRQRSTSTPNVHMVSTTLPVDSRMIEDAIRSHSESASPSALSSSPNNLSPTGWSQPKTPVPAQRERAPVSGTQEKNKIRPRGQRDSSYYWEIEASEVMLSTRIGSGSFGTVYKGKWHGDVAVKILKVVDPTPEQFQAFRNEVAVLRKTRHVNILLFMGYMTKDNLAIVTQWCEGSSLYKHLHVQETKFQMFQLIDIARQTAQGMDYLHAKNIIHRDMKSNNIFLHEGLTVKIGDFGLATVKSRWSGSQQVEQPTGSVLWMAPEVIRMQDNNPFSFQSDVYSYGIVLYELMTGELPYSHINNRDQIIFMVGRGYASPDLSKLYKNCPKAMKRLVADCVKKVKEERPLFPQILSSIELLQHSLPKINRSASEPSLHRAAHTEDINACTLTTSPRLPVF
Sequence of Cyclin-dependent kinase-like 2 (Homo sapiens) (Q92772 whole entry, the tested form may be a part): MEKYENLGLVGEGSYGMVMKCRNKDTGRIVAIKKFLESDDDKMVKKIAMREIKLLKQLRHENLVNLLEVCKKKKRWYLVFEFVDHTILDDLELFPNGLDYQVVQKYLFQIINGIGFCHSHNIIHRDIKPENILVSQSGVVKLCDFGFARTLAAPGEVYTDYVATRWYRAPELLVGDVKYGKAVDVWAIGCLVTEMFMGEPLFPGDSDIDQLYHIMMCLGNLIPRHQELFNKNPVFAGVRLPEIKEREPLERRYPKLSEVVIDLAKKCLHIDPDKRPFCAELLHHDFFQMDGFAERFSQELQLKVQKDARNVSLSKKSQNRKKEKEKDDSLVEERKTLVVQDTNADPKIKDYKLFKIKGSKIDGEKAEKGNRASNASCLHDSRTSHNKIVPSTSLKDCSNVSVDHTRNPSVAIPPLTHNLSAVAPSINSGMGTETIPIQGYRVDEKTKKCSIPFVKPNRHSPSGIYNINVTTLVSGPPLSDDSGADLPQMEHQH
Sequence of Mast/stem cell growth factor receptor Kit (Homo sapiens), P10721 [D816H] (P10721 whole entry D816H, the tested form may be a part): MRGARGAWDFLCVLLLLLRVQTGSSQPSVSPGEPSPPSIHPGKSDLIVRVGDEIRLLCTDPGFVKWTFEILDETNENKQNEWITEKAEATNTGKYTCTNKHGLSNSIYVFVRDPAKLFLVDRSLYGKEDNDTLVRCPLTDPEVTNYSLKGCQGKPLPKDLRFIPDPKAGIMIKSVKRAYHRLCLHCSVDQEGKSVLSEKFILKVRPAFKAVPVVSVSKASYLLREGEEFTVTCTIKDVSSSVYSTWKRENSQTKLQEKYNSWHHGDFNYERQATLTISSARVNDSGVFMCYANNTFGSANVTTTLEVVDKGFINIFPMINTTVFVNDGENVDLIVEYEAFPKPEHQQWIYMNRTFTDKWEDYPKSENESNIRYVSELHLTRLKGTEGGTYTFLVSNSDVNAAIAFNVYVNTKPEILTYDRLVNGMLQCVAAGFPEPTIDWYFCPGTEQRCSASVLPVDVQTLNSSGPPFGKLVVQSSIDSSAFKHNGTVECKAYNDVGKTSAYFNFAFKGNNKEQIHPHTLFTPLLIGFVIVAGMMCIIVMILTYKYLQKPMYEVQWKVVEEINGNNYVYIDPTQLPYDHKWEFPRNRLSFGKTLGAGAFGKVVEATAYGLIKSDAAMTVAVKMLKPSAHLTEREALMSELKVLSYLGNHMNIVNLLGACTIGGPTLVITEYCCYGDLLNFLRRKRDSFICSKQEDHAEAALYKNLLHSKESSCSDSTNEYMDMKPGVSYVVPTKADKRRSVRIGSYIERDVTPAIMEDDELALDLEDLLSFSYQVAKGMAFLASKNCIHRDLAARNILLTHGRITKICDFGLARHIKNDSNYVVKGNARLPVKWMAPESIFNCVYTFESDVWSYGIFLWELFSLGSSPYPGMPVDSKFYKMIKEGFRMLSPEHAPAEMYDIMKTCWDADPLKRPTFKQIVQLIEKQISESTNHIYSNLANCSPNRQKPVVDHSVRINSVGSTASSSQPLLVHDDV

SMILES: CC(C)N1C(=O)C(NCCCN(C)C)=C(c2cn(C)c3ccccc23)C1=O.Cl
- Activity [1]: 100%
- Activity [2]: 96%
- Activity [3]: 91%
- Activity [4]: 100%
- Activity [5]: 78%
- Activity [6]: 98%
- Activity [7]: 83%
- Activity [8]: 83%
- Activity [9]: 100%
- Activity [10]: 91%
- Activity [11]: 100%
- Activity [12]: 78%
- Activity [13]: 94%
- Activity [14]: 88%
- Activity [15]: 92%
- Activity [16]: 96%
- Activity [17]: 94%
- Activity [18]: 99%
- Activity [19]: 100%
- Activity [20]: 96%
- Activity [21]: 78%
- Activity [22]: 95%
- Activity [23]: 100%
- Activity [24]: 93%
